{
  "source": "paper PMC4830539",
  "about": "“Chemical Inhibition of Histone Deacetylases 1 and 2 Induces Fetal Hemoglobin through Activation of GATA2” (PLoS ONE, 2016)",
  "key": {"HDAC1": {"biological_target": "HDAC1 (Homo sapiens, UniProt Q13547)", "sequence (Q13547 whole entry)": "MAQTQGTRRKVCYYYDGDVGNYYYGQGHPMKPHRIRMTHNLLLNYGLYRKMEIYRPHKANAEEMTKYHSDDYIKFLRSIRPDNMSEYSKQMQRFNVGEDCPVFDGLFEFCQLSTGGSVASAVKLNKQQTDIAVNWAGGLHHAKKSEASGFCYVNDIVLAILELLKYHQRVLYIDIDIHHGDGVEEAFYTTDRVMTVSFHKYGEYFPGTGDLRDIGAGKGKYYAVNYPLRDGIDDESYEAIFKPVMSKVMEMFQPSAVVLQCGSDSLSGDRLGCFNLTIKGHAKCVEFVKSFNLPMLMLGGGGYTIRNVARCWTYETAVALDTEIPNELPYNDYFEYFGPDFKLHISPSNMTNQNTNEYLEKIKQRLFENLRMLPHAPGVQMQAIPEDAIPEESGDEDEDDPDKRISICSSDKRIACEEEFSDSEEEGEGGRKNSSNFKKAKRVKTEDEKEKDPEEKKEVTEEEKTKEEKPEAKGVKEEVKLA", "test": "In vitro biochemical HDAC enzyme assay", "conditions": "24 hours pre-incubation; mean, n = 4", "protocol": "(§1) In vitro biochemical assays were performed as described previously. Specifically, drugs were dissolved and diluted in assay buffer (50 mM HEPES, pH 7.4, 100 mM KCl, 0.001% Tween-20, 0.05% BSA, and 20 μM Tris (2-carboxyethyl)phosphine) to 6-fold the final concentration. HDAC enzymes (BPS Biosciences) were diluted to 1.5-fold of the final concentration in assay buffer and pre-incubated with ACY-957 for 24 hours before the addition of the substrate. The amount of substrate (acetyl-lysine tripeptide substrate for HDAC1, HDAC2, HDAC3, and HDAC6 or trifluoroacetyl-lysine tripeptide for HDAC4, HDAC5, HDAC7, HDAC8, and HDAC9) used for each enzyme was equal to the Michaelis constant (Km), as determined by a titration curve. Substrate was diluted in assay buffer to 6-fold the final concentration with 0.3 μM sequencing grade trypsin (Sigma-Aldrich). The substrate/trypsin mix was added to the enzyme/compound mix and the plate was shaken for 5 seconds and then placed into a SpectraMax M5 microtiter plate reader (Molecular Devices). The enzymatic reaction was monitored over 30 minutes for release of […] after deacetylation of the lysine side chain in the peptide substrate, and the linear rate of the reaction was calculated.\n(§2) ACY-957 was tested against each individual HDAC in an in vitro biochemical assay as previously described. Aminobenzamides have slow association rate constants, therefore a prolonged pre-incubation time of 24 hours is required to reach equilibrium."}, "HDAC8": {"tested_on": "T1, HDAC8", "T1 construct": "purchased BPS Biosciences", "test": "In vitro biochemical HDAC enzyme assay", "conditions": "at concentrations as high as 20 μM", "protocol": "as §1, §2"}, "HDAC9": {"tested_on": "T2, HDAC9", "T2 construct": "purchased BPS Biosciences", "test": "In vitro biochemical HDAC enzyme assay", "conditions": "at concentrations as high as 20 μM", "protocol": "as §1, §2"}, "HbF protein": {"tested_on": "HbF protein", "test": "HbF protein by flow cytometry in BM cells (CS1, CS2)", "format": "cell-based, human", "conditions": "for HbF positive cells / MFI of HbF positive cells: 1 μM ACY-957 or 30 μM hydroxyurea", "protocol": "CD34+ cells isolated from human bone marrow of healthy normal donors (Lonza, AllCells, or StemCell Technologies), referred to as BM cells throughout this work, were cultured using two distinct 2-phase culture systems. These systems have been described previously and are referred to as Culture System 1 (CS1) and Culture System 2 (CS2) throughout this work. CS1 expansion media is StemSpan SFEM (StemCell Technologies) supplemented with CC100 (StemCell Technologies), 100 U/mL penicillin and 100 μg/mL streptomycin. CC100 is a mix of Flt-3 ligand (FLT3LG), KIT ligand (KITLG), interleukin-3 (IL3), and interleukin-6 (IL6). CS1 differentiation media is StemSpan SFEM supplemented with 1 U/ml erythropoietin (EPO), 5 ng/mL IL3, 20 ng/mL KITLG, 2 μM dexamethasone, 1 μM beta-estradiol, 100 U/mL penicillin and 100 μg/mL streptomycin. CS2 expansion media is StemSpan SFEM supplemented with 1% glutamine, 40 μg/mL lipids (Sigma), 100 ng/mL KITLG, 10 ng/mL IL3, and 0.5 U/mL EPO. CS2 differentiation media is same as CS2 expansion media, except 3 U/mL EPO.\nFlow cytometry was performed on a FC500 flow cytometer ([…]). Fetal hemoglobin protein was assayed using the Fetal Hemoglobin Test Kit (Life Technologies) according to manufacturer’s protocol. Samples were stained with FITC-conjugated mouse IgG1 anti-human HbF antibody (clone HbF-1, Life Technologies). Each sample was also stained with a FITC-conjugated mouse IgG1 isotype control antibody (clone X40, BD Biosciences) and used as a negative control. FETALtrol cells were used as positive controls (Trillium Diagnostics). TFRC and GYPA were detected on fresh cells by staining with 20 μL of PE-conjugated anti-human TFRC (clone M-A712, catalog 555537, BD Biosciences) and 0.5 μL of FITC- or APC-conjugated anti-human GYPA (clone GA-R2 (HIR2), catalog 559943 or 551336, BD Biosciences) in 200 μL PBS with 0.1% BSA for 40 min on ice. Forward and side scatter, or staining with 7AAD (catalog 559925, BD Biosciences), was used to identify viable cells.\nTo determine if the HBG mRNA induction observed in the presence of ACY-957 was associated with an increase in the HbF protein, CS1 and CS2 cells at day 5 were stained with a fluorescently conjugated anti-HbF antibody and evaluated by flow cytometry. HbF positive cells were increased by 2 to 3-fold upon treatment with ACY-957, which exceeded the response observed with hydroxyurea (Fig 2B and 2E)."}, "[1]": {"tested_on": "histone acetylation at GATA2 regulatory regions", "test": "ChIP-QPCR of histone acetylation at GATA2 regulatory regions", "format": "cell-based, human", "conditions": "-1.8 kb GATA2 regulatory region, 1 μM", "protocol": "Cells were fixed in 1% formaldehyde for 15 minutes at room temperature. Crosslinking reaction was extinguished by adding glycine to 125 mM. Cells were washed three times in PBS, 0.5% lgepal CA-630, 1 mM phenylmethanesulfonyl fluoride (PMSF). Cell pellets were snap frozen on dry ice and stored at -80°C.\nFor ChIP-QPCR experiments, chromatin (11 μg) from vehicle (n = 1) or ACY-957 (n = 1) treated cells was fragmented by sonication, then immunoprecipitated (n = 3, each) using antibodies against histone H3 lysine 9 acetylation (3 μg, ab10812, Abcam), histone H2B lysine 5 acetylation (6 μL, ab40886, Abcam), histone H3 lysine 27 acetylation (3 μg, ab4729, Abcam), or GATA2 (6 μg, SC-9008, Santa Cruz). Specific genomic regions within immunoprecipitated and input DNA was detected using SYBR green QPCR with the following primer pairs:\nTo investigate how HDAC1/2 inhibition drives GATA2 activation, we performed a series of chromatin immunoprecipitation (ChIP) experiments. BM cells were expanded in CS1, and then shifted to CS1 differentiation media in the presence of vehicle or 1 μM ACY-957 for several days, yielding erythroid progenitor cells with TFRC/GYPA differentiation profiles similar to those used for GeneChip experiments and unaffected by compound treatment (Fig 8A and 8B). […]"}, "[2]": {"set-up": "method as in earlier work", "conditions": "rat; cited from earlier work"}, "[3]": {"set-up": "method as in earlier work", "conditions": "monkey; cited from earlier work"}, "HDAC2": {"biological_target": "HDAC2 (Homo sapiens, UniProt Q92769)", "sequence (Q92769 whole entry)": "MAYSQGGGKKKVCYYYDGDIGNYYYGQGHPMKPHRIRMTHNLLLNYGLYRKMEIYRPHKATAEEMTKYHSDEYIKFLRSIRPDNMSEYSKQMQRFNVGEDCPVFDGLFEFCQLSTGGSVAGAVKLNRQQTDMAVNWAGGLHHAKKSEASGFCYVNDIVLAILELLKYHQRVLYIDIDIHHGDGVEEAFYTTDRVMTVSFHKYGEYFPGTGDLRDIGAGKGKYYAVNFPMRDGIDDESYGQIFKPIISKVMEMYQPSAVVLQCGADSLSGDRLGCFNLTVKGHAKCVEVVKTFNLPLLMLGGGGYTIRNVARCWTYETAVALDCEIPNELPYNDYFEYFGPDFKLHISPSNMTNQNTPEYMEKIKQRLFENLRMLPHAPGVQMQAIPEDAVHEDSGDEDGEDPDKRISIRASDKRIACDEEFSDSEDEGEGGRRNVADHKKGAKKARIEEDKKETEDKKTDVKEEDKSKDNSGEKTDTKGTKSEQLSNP", "test": "In vitro biochemical HDAC enzyme assay", "set-up": "purchased BPS Biosciences", "conditions": "24 hours pre-incubation; mean, n = 4", "protocol": "as §1\nACY-957 was tested against each individual HDAC in an in vitro biochemical assay as previously described. […]"}},
  "note": "Like-named read-outs stand apart in the source and are kept apart here.",
  "data": [
    {"smiles": "Nc1ccc(-c2cccs2)cc1NC(=O)c1ccc2nc(N3CCNCC3)ccc2c1", "note": "[ACY-957]", "values": [
      {"measurement": "IC50", "setting": "HDAC1", "result": 7, "unit": "nM"},
      {"measurement": "inhibition of HDAC8", "setting": "HDAC8", "result": "no inhibition"},
      {"measurement": "inhibition of HDAC9", "setting": "HDAC9", "result": "no inhibition"},
      {"measurement": "HbF positive cells", "setting": "HbF protein; CS1, day 5", "result": 36, "unit": "%"},
      {"measurement": "MFI of HbF positive cells", "setting": "HbF protein; CS1, day 5", "result": 36},
      {"measurement": "increase of HbF positive cells", "setting": "HbF protein; CS1 and CS2, day 5, 1 μM", "result": "2 to 3", "unit": "fold"},
      {"measurement": "increase of mean fluorescent intensity (MFI) of HbF positive cells", "setting": "HbF protein; CS1 and CS2, day 5, 1 μM", "result": "up to 2 fold"},
      {"measurement": "HbF positive cells", "setting": "HbF protein; CS2, day 5", "result": 50, "unit": "%"},
      {"measurement": "MFI of HbF positive cells", "setting": "HbF protein; CS2, day 5", "result": 20},
      {"measurement": "maximum increases in histone acetylation (H3K9ac, H2BK5ac, H3K27ac)", "setting": "[1]", "result": "4- to 8 fold"},
      {"measurement": "pharmacokinetic properties", "setting": "[2]", "result": "favorable"},
      {"measurement": "pharmacokinetic properties", "setting": "[3]", "result": "favorable"},
      {"measurement": "IC50", "setting": "HDAC2", "result": 18, "unit": "nM"}
    ]}
  ]
}
